Results taken from US20160362693A1, “Reagents and Methods for Treating Cancer” (PeptiMed, Inc., priority 2010, published 2016).

Assays:
Assay type in all cases: cell-based, human
[1] = system: LNCaP prostate tumor cells; experiment: Viability of prostate tumor cells after siRNA transfection (trypan blue count); conditions: 50 nM siRNA, DharmaFECT, 96 hours, vs control siRNA
Experimental: (§1) Each of the five siRNA duplexes presented in Table 2 were introduced into cultures of prostate tumor cells at a concentration of 50 nM. Briefly, fifty to one hundred thousand tumor cells were added to each well of a 6 well plate and allowed to attach to the surface and grow for 18 hours in DMEM medium containing 10% fetal bovine serum. A total of 200 picomol of each siRNA was introduced into cells using 1 microliter DharmaFECT reagent in 2 ml total volume of media. Cells were incubated with the siRNA for 96 hours. The viability of the prostate tumor cells was assessed by counting cells with a hemocytometer following trypan blue exclusion staining. Each of the five sequences reduced the number of viable cells at least 40% (compared to control siRNA-treated cells) in at least one prostate tumor cell line.

PC3 prostate tumor cells = experiment: as above; conditions: 50 nM siRNA, DharmaFECT, 96 hours, vs control siRNA
Experimental: as §1

Hs832.Tc cells = experiment: Viability of ovarian cells after siRNA transfection (trypan blue count); conditions: 50 nM siRNA, DharmaFECT, 96 hours, vs control siRNA
Experimental: as §1, with “ovarian” for “prostate”, “100 pmol” for “200 picomol”, “DharmaFECT (Thermo Scientific)” for “DharmaFECT”

ES-2 ovarian tumor cells = experiment: Viability of ovarian tumor cells after siRNA transfection (trypan blue count); conditions: 50 nM siRNA, DharmaFECT, 96 hours, vs control siRNA
Experimental: as §1, with “ovarian” for “prostate”, “100 pmol” for “200 picomol”, “DharmaFECT (Thermo Scientific)” for “DharmaFECT”

[2] = system: TOV-112D ovarian tumor cells; experiment: as above; conditions: 50 nM siRNA, DharmaFECT, 96 hours, vs control siRNA
Experimental: as §1, with “ovarian” for “prostate”, “100 pmol” for “200 picomol”, “DharmaFECT (Thermo Scientific)” for “DharmaFECT”

[3] = system: OVCAR3 ovarian tumor cells; experiment: as above; conditions: 50 nM siRNA, DharmaFECT, 96 hours, vs control siRNA
Experimental: as §1, with “ovarian” for “prostate”, “100 pmol” for “200 picomol”, “DharmaFECT (Thermo Scientific)” for “DharmaFECT”

[4] = system: SK-OV-3 ovarian tumor cells; experiment: as above; conditions: 50 nM siRNA, DharmaFECT, 96 hours, vs control siRNA
Experimental: as §1, with “ovarian” for “prostate”, “100 pmol” for “200 picomol”, “DharmaFECT (Thermo Scientific)” for “DharmaFECT”

[5] = system: UWB1.289 ovarian tumor cells; experiment: as above; conditions: 50 nM siRNA, DharmaFECT, 96 hours, vs control siRNA
Experimental: as §1, with “ovarian” for “prostate”, “100 pmol” for “200 picomol”, “DharmaFECT (Thermo Scientific)” for “DharmaFECT”

PA-1 ovarian tumor cells = experiment: as above; conditions: 50 nM siRNA, DharmaFECT, 96 hours, vs control siRNA
Experimental: as §1, with “ovarian” for “prostate”, “100 pmol” for “200 picomol”, “DharmaFECT (Thermo Scientific)” for “DharmaFECT”

[6] = system: Caov-3 ovarian tumor cells; experiment: as above; conditions: 50 nM siRNA, DharmaFECT, 96 hours, vs control siRNA
Experimental: as §1, with “ovarian” for “prostate”, “100 pmol” for “200 picomol”, “DharmaFECT (Thermo Scientific)” for “DharmaFECT”

[7] = system: OV-90 ovarian tumor cells; experiment: as above; conditions: 50 nM siRNA, DharmaFECT, 96 hours, vs control siRNA
Experimental: as §1, with “ovarian” for “prostate”, “100 pmol” for “200 picomol”, “DharmaFECT (Thermo Scientific)” for “DharmaFECT”

[8] = system: MDA-MB-231 breast tumor cells; experiment: Viability of breast tumor cells after siRNA transfection (trypan blue count); parameters: dose or concentration left out as unconfirmed; conditions: DharmaFECT, 96 hours, vs control siRNA
MCF-7 breast tumor cells = experiment: as above; parameters: dose or concentration left out as unconfirmed; conditions: DharmaFECT, 96 hours, vs control siRNA
Experimental: as §1, with “of breast” for “of prostate”, “serum. […]” for “serum. A total of 200 picomol of each siRNA was introduced into cells using 1 microliter DharmaFECT reagent in 2 ml total volume of media.”, “the breast” for “the prostate”, “blue exclusion.” for “blue exclusion staining.”, “one ovarian” for “one prostate”

TOV-112D cells = experiment: Concentration-dependent effect of siRNA on cell survival (IC50); conditions: cell viability 96 hours after adding siRNA, FIG. 6B, read-out: IC50 (concentration of siRNA that inhibited growth by 50%)
Experimental: (§2) FIG. 6A and FIG. 6B show concentration-dependent effects of siRNA against the EVI1 gene on cell survival. Ovarian tumor cells ES-2 and TOV-112D were seeded into each well of a 12 well plate. Increasing concentrations of siRNA were introduced into the cells using 1 microliter of Dharmafect reagent in 2 ml of medium. The number of viable cells was determined using trypan blue staining and counting in a hemacytometer.
(§3) For a substance to be an effective cancer therapeutic agent, it needs a robust cancer killing effect at very low concentrations, which for siRNA will be understood to be at subnanomolar concentrations in cell culture. The concentration of siRNA that inhibited growth of ovarian tumor cells by 50% (IC50) was determined by measuring cell viability 96 hours after adding one of various dose levels of siRNA to identical numbers of tumor cells in culture. […] For TOV-112D cells, the IC50 of siEVI1-979 (SEQ ID NOs 9-10) is ˜4 nM, and the IC50 of siEVI1-2910 (SEQ ID NOs 13-14) is ˜0.8 nM. To further identify potent sequences that inhibit the growth of ovarian tumor cells, sequences of up to 10 bp upstream and 10 bp downstream of siEVI1-2910 (SEQ ID NOs: 121-160) were prepared and administered to ES-2 and TOV-112D ovarian tumor cells at a concentration of 2.5 nM using DharmaFECT transfection reagent. FIG. 7A depicts the results of percent growth inhibition of TOV-112D ovarian tumor cells relative to a transfection control. […] FIG. 7B depicts the results of percent growth inhibition of ES-2 ovarian tumor cells relative to a transfection control.

ES-2 cells = experiment: as above; conditions: cell viability 96 hours after adding siRNA, FIG. 6A, read-out: IC50 (concentration of siRNA that inhibited growth by 50%)
Experimental: as §2, §3

Substance: siEVI1-256: siRNA duplex; sense 5′-ccagauaaaugaucagauauu-3′ SEQ ID NO: 7, antisense SEQ ID NO: 8 (sense CCAGAUAAAUGAUCAGAUAUU; antisense UAUCUGAUCAUUUAUCUGGUU; listed as RNA, chemistry not given here)
- Response to siRNA (% growth inhibition) [1]: 4%
- Response to siRNA (% growth inhibition) (PC3 prostate tumor cells): 23%
- Response to siRNA (% growth inhibition) (Hs832.Tc cells): 0%
- Response to siRNA (% growth inhibition) (ES-2 ovarian tumor cells): 0%
- Response to siRNA (% growth inhibition) [2]: 36%
- Response to siRNA (% growth inhibition) [3]: 0%
- Response to siRNA (% growth inhibition) [4]: 12%
- Response to siRNA (% growth inhibition) [5]: 43%
- Response to siRNA (% growth inhibition) (PA-1 ovarian tumor cells): 0%
- Response to siRNA (% growth inhibition) [6]: 13%
- Response to siRNA (% growth inhibition) [7]: 26%
- Response to siRNA (% growth inhibition) [8]: 31%
- Response to siRNA (% growth inhibition) (MCF-7 breast tumor cells): 32%

Substance: siEVI1-2910: siRNA duplex; sense 5′-ggaauguggaggagagaauuu-3′ SEQ ID NO: 13, antisense SEQ ID NO: 14 (sense GGAAUGUGGAGGAGAGAAUUU; antisense AUUCUCUCCUCCACAUUCCUU; listed as RNA, chemistry not given here)
- Response to siRNA (% growth inhibition) [1]: 46%
- Response to siRNA (% growth inhibition) (PC3 prostate tumor cells): 53%
- Response to siRNA (% growth inhibition) (Hs832.Tc cells): 0%
- Response to siRNA (% growth inhibition) (ES-2 ovarian tumor cells): 92%
- Response to siRNA (% growth inhibition) [2]: 85%
- Response to siRNA (% growth inhibition) [3]: 73%
- Response to siRNA (% growth inhibition) [4]: 12%
- Response to siRNA (% growth inhibition) [5]: 67%
- Response to siRNA (% growth inhibition) (PA-1 ovarian tumor cells): 0%
- Response to siRNA (% growth inhibition) [6]: 47%
- Response to siRNA (% growth inhibition) [7]: 23%
- Response to siRNA (% growth inhibition) [8]: 21%
- Response to siRNA (% growth inhibition) (MCF-7 breast tumor cells): 67%
- IC50 (TOV-112D cells): ~0.8 nM
- IC50 (ES-2 cells): ~0.5 nM

Substance: siEVI1-992: siRNA duplex; sense 5′-ggacaaauguucagcacuauu-3′ SEQ ID NO: 11, antisense SEQ ID NO: 12 (sense GGACAAAUGUUCAGCACUAUU; antisense UAGUGCUGAACAUUUGUCCUU; listed as RNA, chemistry not given here)
- Response to siRNA (% growth inhibition) [1]: 12%
- Response to siRNA (% growth inhibition) (PC3 prostate tumor cells): 35%
- Response to siRNA (% growth inhibition) (Hs832.Tc cells): 10%
- Response to siRNA (% growth inhibition) (ES-2 ovarian tumor cells): 54%
- Response to siRNA (% growth inhibition) [2]: 70%
- Response to siRNA (% growth inhibition) [3]: 0%
- Response to siRNA (% growth inhibition) [4]: 31%
- Response to siRNA (% growth inhibition) [5]: 73%
- Response to siRNA (% growth inhibition) (PA-1 ovarian tumor cells): 0%
- Response to siRNA (% growth inhibition) [6]: 46%
- Response to siRNA (% growth inhibition) [7]: 25%
- Response to siRNA (% growth inhibition) [8]: 23%
- Response to siRNA (% growth inhibition) (MCF-7 breast tumor cells): 0%

Substance: siEVI1-979: siRNA duplex; sense 5′-gugcaaagacuguggacaauu-3′ SEQ ID NO: 9, antisense SEQ ID NO: 10 (sense GUGCAAAGACUGUGGACAAUU; antisense UUGUCCACAGUCUUUGCACUU; listed as RNA, chemistry not given here)
- Response to siRNA (% growth inhibition) [1]: 12%
- Response to siRNA (% growth inhibition) (PC3 prostate tumor cells): 8%
- Response to siRNA (% growth inhibition) (Hs832.Tc cells): 0%
- Response to siRNA (% growth inhibition) (ES-2 ovarian tumor cells): 63%
- Response to siRNA (% growth inhibition) [2]: 79%
- Response to siRNA (% growth inhibition) [3]: 60%
- Response to siRNA (% growth inhibition) [4]: 42%
- Response to siRNA (% growth inhibition) [5]: 14%
- Response to siRNA (% growth inhibition) (PA-1 ovarian tumor cells): 0%
- Response to siRNA (% growth inhibition) [6]: 34%
- Response to siRNA (% growth inhibition) [7]: 16%
- Response to siRNA (% growth inhibition) [8]: 14%
- Response to siRNA (% growth inhibition) (MCF-7 breast tumor cells): 0%
- IC50 (TOV-112D cells): ~4 nM
- IC50 (ES-2 cells): ~2.5 nM

Substance: siEVI1-2994: siRNA duplex; sense 5′-augaagaaguugaagaugauu-3′ SEQ ID NO: 15, antisense SEQ ID NO: 16 (sense AUGAAGAAGUUGAAGAUGAUU; antisense UCAUCUUCAACUUCUUCAUUU; listed as RNA, chemistry not given here)
- Response to siRNA (% growth inhibition) [1]: 12%
- Response to siRNA (% growth inhibition) (PC3 prostate tumor cells): 25%
- Response to siRNA (% growth inhibition) (Hs832.Tc cells): 0%
- Response to siRNA (% growth inhibition) (ES-2 ovarian tumor cells): 54%
- Response to siRNA (% growth inhibition) [2]: 70%
- Response to siRNA (% growth inhibition) [3]: 0%
- Response to siRNA (% growth inhibition) [4]: 0%
- Response to siRNA (% growth inhibition) [5]: 0%
- Response to siRNA (% growth inhibition) (PA-1 ovarian tumor cells): 18%
- Response to siRNA (% growth inhibition) [6]: 28%
- Response to siRNA (% growth inhibition) [7]: 33%
- Response to siRNA (% growth inhibition) [8]: 21%
- Response to siRNA (% growth inhibition) (MCF-7 breast tumor cells): 57%
